The values that follow come from patent US10537579B2, “Rejection reaction suppressant” (JUNTENDO EDUCATIONAL FOUNDATION, priority 2017, dated 2020).

Holding throughout (format): in vivo
Assay [1] deals with foxp3, IL-10 and TGFβ1 in transplanted mouse corneas. Nature of the assay: Mouse corneal transplant model: expression levels in the corneas by real-time PCR (qPCR) on day 14. The following applies: day 14 after corneal transplantation. The method, then: (§1) Mouse corneal transplant models were prepared (surgery), divided into groups (Group P, Group R2, and Group R3), and treated (ocular instillation) in the same manner as in Example 1. On day 14 after transplantation, cervical lymph node cells were collected, and CD4^+ T cells, the expression levels of inflammatory cytokines IFNγ and IL-17, CD4^+CD25^+Foxp3^+ regulatory T cells (Tregs) involved in immune tolerance, […], and the expression level of Foxp3 (Mean Fluorescein Intensity, MFI) were measured by flow cytometry (FACS). Further, on day 14 after transplantation, the expression levels of foxp3, IL-10, and TGFβ1 in the corneas were also measured by a real-time PCR (qPCR).
A general note: Quantitative PCR measures a nucleic acid by following its amplification.

Assay [2] deals with transplanted human cornea. Nature of the assay: Effects on transplanted human cornea (case, angiogenesis in corneal graft). The following applies: after 3 weeks of ocular instillation. The method, then: Corneal transplantation was performed in a case of corneal perforation resulting from corneal herpes (person), and as a result, severe hyperemia was observed one month after surgery, and vascularization was observed also in a corneal graft. Peripheral anterior synechia was observed, and secondary glaucoma was observed, and therefore GLANATEC ophthalmic solution 0.4% was prescribed.

Assay [3] relates to CD31, VEGF-A and Lyve-1 in transplanted mouse corneas. Nature of the assay: Mouse corneal transplant model: expression levels in the corneas by real-time PCR on day 56. Conditions: Group R3: three times daily, vs Group P, p<0.001. The method, then: (§2) Mouse corneal transplant models were prepared in accordance with a method described in a document (J Biol Methods 2015 2(3); e 27, hereinafter referred to as Document A) and used in an experiment. More specifically, allograft corneal transplantation was performed between 6 to 8-week-old donor male C57BL/6 mice and 6 to 8-week-old host male Balb/c mice.
(§3) The mice that had received corneal transplantation were divided into three groups (5 mice per group): ocular instillation of PBS twice daily (Group P: control group); ocular instillation of ripasudil twice daily (Group R2); and ocular instillation of ripasudil three times daily (Group R3).
(§4) The amount of PBS or ripasudil instilled into one eye per administration was 0.1 μL, and GLANATEC ophthalmic solution 0.4% was used as ripasudil.
(§5) After transplantation, the ocular instillation was performed every day until day 56, during which the angiogenesis score and opacity score (each of which was determined by a method described in. Document A) and the survival time of corneal grafts were evaluated with a slit lamp microscope every 7 days. On day 56 that was the final day of the experiment, in addition to the above evaluations, the expression levels of vascular endothelial cells (CD31), vascular endothelial cell growth factor (VEGF-A), and lymph vessels (Lyve-1) in the corneas were measured by real-time-PCR.

Assay [4] concerns transplanted mouse corneas. Nature of the assay: Mouse corneal transplant model: angiogenesis score, opacity score and graft survival by slit lamp microscope. Conditions: Group R3: ocular instillation three times daily. How it is done: as §2, §3, §4, §5
For assay [5], the system named is mouse cervical lymph node cells. Nature of the assay: Mouse corneal transplant model: cervical lymph node cells by flow cytometry (FACS) on day 14. The following applies: day 14 after transplantation. How it is done: as §1
A general note: A flow cytometer gives signals particle by particle.

[6] abbreviates: until day 56, vs Group P (PBS), p<0.05.

For the compound `C[C@H]1CNCCCN1S(=O)(=O)c1cccc2cncc(F)c12.Cl.O.O` [ripasudil, 4-fluoro-5-{[(2S)-2-methyl-1,4-diazepan-1-yl]sulfonyl}isoquinoline monohydrochloride dihydrate], the “expression of foxp3 in the corneas” value in assay [1] (Group R2: twice daily) was “significantly increased”. In addition, in assay [1] (Group R3: three times daily), the “expression of IL-10 in the corneas” value was “significantly increased”, the “expression of TGFβ1 in the corneas” value was “significantly increased” and the “expression of foxp3 in the corneas” value is given as “significantly increased”. Also, the “numerical analysis of new blood vessels with Image J (FIG. 10)” value in assay [2] was “effect of suppressing angiogenesis”. In assay [3], the “CD31 expression level in the corneas” value is “significantly lower”, the “Lyve-1 expression level in the corneas” value is reported as “significantly lower” and the “VEGF-A expression level in the corneas” value was “significantly lower”. In assay [4], the “transparency of transplanted cornea (photographs, FIG. 1)” value is reported as “maintained until day 56”. In assay [4] (setting [6]), the angiogenesis score result was “significantly lower”, the opacity score result is reported as “significantly lower” and the “survival time of corneal grafts” value is reported as “significantly prolonged”. Also, the “Foxp3 expression level (MFI) in cervical lymph node cells” value in assay [5] (Group R2: twice daily) is reported as “significantly increased”. In addition, in assay [5] (Group R3: three times daily), the “CD4+CD25+Foxp3+ regulatory T cells (Tregs) in cervical lymph node cells” value was “significantly increased”, the “CD4+CD25+Foxp3− regulatory T cells (exTregs) in cervical lymph node cells” value is given as “significantly reduced”, the “Foxp3 expression level (MFI) in cervical lymph node cells” value is reported as “significantly increased” and the “inflammatory cytokine IFN-γ in cervical lymph node cells” value is “significant reduction”.
